30 molecules from patent US6384051B1, “Method of treating or inhibiting colonic polyps” (American Cyanamid Company, priority 2000, dated 2002) can be followed below.

On to `COc1cc2ncc(C#N)c(Nc3cccc(N(C)C)c3)c2cc1OC` [Example 366, 4-(3-Dimethylamino-phenylamino)-6,7-dimethoxy-quinoline-3-carbonitrile], for which the melting point (as a rule, the temperature of the solid-liquid transition) lay within 246 to 249 °C.
With `COc1ccc2c(Nc3ccc(C)c(O)c3)c(C#N)cnc2c1` [Example 281, 4-(3-Hydroxy-4-methyl-phenylamino)-7-methoxy-quinoline-3-carbonitrile], the melting point is greater than 250 °C.
The molecule `COc1cc2c(Nc3cccc(Br)c3)c(C#N)cnc2cc1OCCCN1CCOCC1` [Example 313, 4-(3-Bromo-phenylamino)-6-methoxy-7-(3-morpholin-4-yl-propoxy)-quinoline-3-carbonitrile] showed a melting point of 115 to 118 °C.
`COc1cc2ncc(C#N)c(Nc3cc(Cl)ccc3O)c2cc1OC` [Example 290, 4-(5-Chloro-2-hydroxy-phenylamino)-6,7-dimethoxy-quinoline-3-carbonitrile] returned a melting point greater than 250 °C.
Molecule `COc1cc2ncc(C#N)c(Nc3ccccc3C(N)=O)c2cc1OC` [Example 297, 2-(3-Cyano-6,7-dimethoxy-quinolin-4-ylamino)-benzamide] displayed a melting point of 238 to 240.5 °C.
With `COc1cc2ncc(C#N)c(Nc3ccc(O)cc3C)c2cc1OC` [Example 292, 4-(4-Hydroxy-2-methyl-phenylamino)-6,7-dimethoxy-quinoline-3-carbonitrile] the figure was greater than 250 °C.
With `COc1cc2ncc(C#N)c(Nc3cc(C)ccc3O)c2cc1OC` [Example 295, 4-(2-Hydroxy-5-methyl-phenylamino)-6,7-dimethoxy-quinoline-3-carbonitrile], the melting point lay in the range of 198 to 200 °C.
With `COc1cc2c(Nc3ccc(Cl)cc3F)c(C#N)cnc2c(OC)c1OC` [Example 234, 4-(4-Chloro-2-fluoro-phenylamino)-6,7,8-trimethoxy-quinoline-3-carbonitrile], the melting point is 166 to 168 °C.
`COc1cc2ncc(C#N)c(Nc3cccc(O)c3C)c2cc1OC` [Example 245, 4-(3-Hydroxy-2-methyl-phenylamino)-6,7-dimethoxy-quinoline-3-carbonitrile] returned a melting point of 255 to 257 °C.
`COc1cccc2c(Nc3cccc(Br)c3)c(C#N)cnc12` [Example 274, 4-[(3-Bromophenyl)amino]-8-methoxy-3-quinolinecarbonitrile] registered a melting point of 210 to 212 °C.
`COc1cc2ncc(C#N)c(Nc3ccc(C)cc3O)c2cc1OC` [Example 287, 4-(2-Hydroxy-4-methyl-phenylamino)-6,7-dimethoxy-quinoline-3-carbonitrile] gave a melting point greater than 250 °C.
Regarding `COc1cc2ncc(C#N)c(Nc3c(C)cccc3O)c2cc1OC` [Example 246, 4-(2-Hydroxy-6-methyl-phenylamino)-6,7-dimethoxy-quinoline-3-carbonitrile], the melting point fell in the range of 245 to 247 °C.
For the molecule `COc1cc2ncc(C#N)c(Oc3cccc(Br)c3)c2cc1OC` [Example 49, 4-(3-Bromophenoxy)-6,7-dimethoxy-3-quinolinecarbonitrile], the melting point was in the range of 187 to 190 °C.
For the molecule `COc1cc2c(Nc3ccc(C)c(O)c3)c(C#N)cnc2c(OC)c1OC` [Example 233, 4-(3-Hydroxy-4-methyl-phenylamino)-6,7,8-trimethoxy-quinoline-3-carbonitrile], the melting point is 200 °C (dec.).
In turn, `CCc1ccc(Nc2c(C#N)cnc3cc(OC)c(OC)cc23)cc1` [Example 335, 4-(4-Ethylphenylamino)-6,7-dimethoxyquinoline-3-carbonitrile] returned a melting point of 248 to 250 °C.
`COc1cc2ncc(C#N)c(Nc3ccc(O)cc3O)c2cc1OC` [Example 300, 4-(2,4-Dihydroxy-phenylamino)-6,7-dimethoxy-quinoline-3-carbonitrile] showed a melting point greater than 250 °C.
The value for `COc1cccc2c(Nc3ccc(Cl)cc3F)c(C#N)cnc12` [Example 275, 4-(4-Chloro-2-fluoro-phenylamino)-8-methoxy-quinoline-3-carbonitrile] was 127 °C (dec.); that for `COc1cc2ncc(C#N)c(Nc3ccc(C(N)=O)cc3)c2cc1OC` [Example 289, 4-(3-Cyano-6,7-dimethoxy-quinolin-4-ylamino)-benzamide] was greater than 250 °C.
In the case of `CN(C)CC#CC(=O)Nc1ccc2ncc(C#N)c(Nc3cccc(Br)c3)c2c1` [Example 329, N-[4-[(3-Bromophenyl)amino]-3-cyano-6-quinolinyl]-4-dimethylamino-2-butynamide], the melting point was 180 °C (dec.).
The value for `COc1cc2c(Nc3cccc(N(C)C)c3)c(C#N)cnc2c(OC)c1OC` [Example 232, 4-(3-Dimethylamino-phenylamino)-6,7,8-trimethoxy-quinoline-3-carbonitrile] was 142 to 144 °C.
For `CN(C)CC#CC(=O)Nc1ccc2ncc(C#N)c(Nc3ccc(F)c(Cl)c3)c2c1` [Example 193, N-[4-[(3-Chloro-4-fluorophenyl)amino]-3-cyano-6-quinolinyl]-4-dimethylamino-2-butynamide], the melting point is 225 °C (dec.).
`COc1cc2ncc(C#N)c(Nc3cccc(C(F)(F)F)c3)c2cc1OC` [Example 42, 4-[(3-Trifluoromethylphenyl)amino]-6,7-dimethoxy-3-quinolinecarbonitrile]: the melting point lay within 190 to 193 °C.
For the molecule `CN(C)CC#CC(=O)Nc1ccc2ncc(C#N)c(Nc3ccc(F)c(Br)c3)c2c1` [Example 197, N-[4-[(3-Bromo-4-fluorophenyl)amino]-3-cyano-6-quinolinyl]-4-dimethylamino-2-butynamide], the melting point is 228 to 231 °C.
`COc1cc2ncc(C#N)c(Nc3ccc(O)cc3Cl)c2cc1OC` [Example 296, 4-(2-Chloro-4-hydroxy-phenylamino)-6,7-dimethoxy-quinoline-3-carbonitrile] came in with a melting point greater than 250 °C.
With `N#Cc1cnc2cc3c(cc2c1Nc1cccc(Br)c1)OCO3` [Example 40, 8-[(3-Bromophenyl)amino]-[1,3]-dioxolo[4,5-g]quinoline-7-carbonitrile], the melting point fell in the range of 201 to 205 °C.
`COc1cc2ncc(C#N)c(Nc3ccc(O)c(Cl)c3)c2cc1OC` [Example 249, 4-(3-Chloro-4-hydroxy-phenylamino)-6,7-dimethoxy-quinoline-3-carbonitrile] gave a melting point of 230 to 232 °C.
For the molecule `CCN(CC)CC#CC(=O)Nc1ccc2ncc(C#N)c(Nc3cccc(Br)c3)c2c1` [Example 187, N-[4-[(3-Bromophenyl)amino]-3-cyano-6-quinolinyl]-4-diethylamino-2-butynamide], the melting point lay in the range of 133 to 135 °C.
With `COc1cccc2c(Nc3cccc(N(C)C)c3)c(C#N)cnc12` [Example 277, 4-(3-Dimethylamino-phenylamino)-8-methoxy-quinoline-3-carbonitrile] the figure was 222 to 225 °C; with `COc1cc2ncc(C#N)c(Nc3cccc(CO)c3C)c2cc1OC` [Example 333, 4-(3-Hydroxymethyl-2-methylphenylamino)-6,7-dimethoxyquinoline-3-carbonitrile], 123 to 125 °C.
`COc1ccc(OC)c2c(Nc3cc(O)c(Cl)cc3F)c(C#N)cnc12` [Example 243, 4-(4-Chloro-2-fluoro-5-hydroxy-phenylamino)-5,8-dimethoxy-quinoline-3-carbonitrile]: the melting point is 240 °C (dec.).
